# Marks after values point to notes of the source that are not given here.
# Assays:
# D83N = experiment: MIC against D83N mutant; assay type: cell-based
# M121K = experiment: MIC against M121K mutant; assay type: cell-based
# TopoIV/gyrase = TopoIV/gyrase inhibition ratio; assay type: biochemical
# K562 = K562 cytotoxicity; assay type: cell-based; conditions: Homo sapiens
# [1] = Mouse microsomal stability; assay type: in vitro ADME; conditions: microsomes, read-out: Mouse microsom. t1/2
# [2] = Human microsomal stability; assay type: in vitro ADME; conditions: microsomes, read-out: Human microsom. t1/2
# [3] = Monkey microsomal stability; assay type: in vitro ADME; conditions: microsomes, read-out: Monkey microsom. t1/2
# S. aureus ATCC 29213 = assay type: cell-based; conditions: Using S. aureus ATCC 29213 and four additional strains of S. aureus
# Staphylococcus aureus = experiment: MIC50/90 against Staphylococcus aureus isolates; assay type: cell-based; conditions: n = 30 (147), n = 100 (284, 319, gepotidacin)
# [4] = tested on: Staphylococcus epidermidis; experiment: MIC50/90 against Staphylococcus epidermidis; assay type: cell-based; conditions: n = 10
# Enterococcus spp. = experiment: MIC50/90 against Enterococcus spp.; assay type: cell-based; conditions: n = 10 (147), n = 20 (others)
# Streptococcus pneumoniae = experiment: MIC50/90 against Streptococcus pneumoniae; assay type: cell-based
# Streptococcus pyogenes = experiment: MIC50/90 against Streptococcus pyogenes; assay type: cell-based
# Streptococcus agalactiae = experiment: MIC50/90 against Streptococcus agalactiae; assay type: cell-based
# Moraxella catarrhalis = experiment: MIC50/90 against Moraxella catarrhalis; assay type: cell-based; conditions: n = 10
# Haemophilus influenzae = experiment: MIC50/90 against Haemophilus influenzae; assay type: cell-based; conditions: n = 10
# Mycobacterium abscessus = experiment: MIC50/90 against Mycobacterium abscessus; assay type: cell-based; conditions: Mycobacteroides abscessus; n = 10
# Mycobacterium avium = experiment: MIC50 against Mycobacterium avium; assay type: cell-based; conditions: n = 4
# Bacillus anthracis = experiment: microbe, parasite or virus in culture; assay type: cell-based
# Francisella tularensis = experiment: microbe, parasite or virus in culture; assay type: cell-based
# Yersinia pestis = experiment: microbe, parasite or virus in culture; assay type: cell-based
# Burkholderia mallei = experiment: microbe, parasite or virus in culture; assay type: cell-based
# [5] = tested on: Burkholderia pseudomallei; experiment: microbe, parasite or virus in culture; assay type: cell-based
# Escherichia coli 25922 = experiment: MIC against Escherichia coli 25922; assay type: cell-based
# [6] = tested on: Acinetobacter baumannii 19606; experiment: MIC against Acinetobacter baumannii 19606; assay type: cell-based
# [7] = tested on: CYP 1A, 2B6, 2C8, 2C9, 2C19, 2D6, 3A; experiment: CYP inhibition at 10 μM; assay type: in vitro ADME
# [8] = Permeability: MDCK II A->B; assay type: in vitro ADME; conditions: dog
# S. aureus 29213 = experiment: MIC against S. aureus 29213; assay type: cell-based; conditions: Staphylococcus aureus
# S. aureus USA300 = experiment: MIC against S. aureus USA300; assay type: cell-based; conditions: Staphylococcus aureus
# [9] = in vivo
# [10] = not given; remark: listed apart in the source
# [11] = not given; remark: listed apart in the source
# [12] = not given; remark: listed apart in the source
# [13] = not given; remark: listed apart in the source
# [14] = all channels
# in vivo = conditions: mouse, Mouse Vdss (L)
# in vitro [15] = conditions: mouse, hepatocytes
# in vitro [16] = conditions: human, hepatocytes
# in vitro [17] = conditions: rat, plasma
# physchem = conditions: pH 7.4, aqueous buffer, kinetic from dmso stock, Kinetic solubility at pH 7.4-7.5 (μM)
# [18] = 284: as free base in immunocompetent mice, 147: no footnote
# [19] = as mesylate salt in neutropenic mice
structure (smiles),measurement,setting,value
"COc1ccc2ncc(F)c(C[C@H](O)[C@H]3OC[C@H](NCc4cnc5c(n4)NC(=O)CO5)CO3)c2n1 [Compound 284, 6-(((2-((S)-2-(3-fluoro-6-methoxy-1,5-naphthyridin-4-yl)-1-hydroxyethyl)-trans-1,3-dioxan-5-yl)amino)methyl)-2H-pyrazino[2,3-b][1,4]oxazin-3(4H)-one]",MIC,D83N,1 to 2 µg/mL
same,MIC,M121K,1 to 4 µg/mL
same,TopoIV/gyrase ratio,TopoIV/gyrase,0.28
same,IC50,K562,> 200 µM
same,half-life,[1],> 2 h
same,half-life,[2],> 2 h
same,half-life,[3],> 2 h
same,Resistance freq. (at 8X MIC),S. aureus ATCC 29213,<9.62 × 10^−10**
same,MIC50,Staphylococcus aureus,0.12 µg/mL
same,MIC90,Staphylococcus aureus,0.25 µg/mL
same,MIC50,[4],0.12 µg/mL
same,MIC90,[4],0.25 µg/mL
same,MIC50,Enterococcus spp.,1 µg/mL
same,MIC90,Enterococcus spp.,2 µg/mL
same,MIC50,"Streptococcus pneumoniae; n = 5 (147), n = 10 (others)",0.5 µg/mL
same,MIC90,Streptococcus pneumoniae; n = 10,1 µg/mL
same,MIC50,"Streptococcus pyogenes; n = 5 (147), n = 10 (others)",0.5 µg/mL
same,MIC90,Streptococcus pyogenes; n = 10,2 µg/mL
same,MIC50,"Streptococcus agalactiae; Streptococcus agalactiae, n = 5 (147), n = 10 (others)",4 µg/mL
same,Streptococcus agalactiae MIC90,Streptococcus agalactiae; n = 10,16 µg/mL
same,MIC50,Moraxella catarrhalis,0.12 µg/mL
same,MIC90,Moraxella catarrhalis,0.25 µg/mL
same,MIC50,Haemophilus influenzae,4 µg/mL
same,MIC90,Haemophilus influenzae,8 µg/mL
same,MIC50,Mycobacterium abscessus,> 64 µg/mL
same,MIC90,Mycobacterium abscessus,> 64 µg/mL
same,MIC50,Mycobacterium avium,4 µg/mL
same,MIC50,Bacillus anthracis; read-out: Bacillus anthracis MIC50 (μg/mL),0.06 µg/mL
same,MIC90,Bacillus anthracis; read-out: Bacillus anthracis MIC90 (μg/mL),0.25 µg/mL
same,MIC50,Francisella tularensis; read-out: Francisella tularensis MIC50 (μg/mL),0.5 µg/mL
same,MIC90,Francisella tularensis; read-out: Francisella tularensis MIC90 (μg/mL),4 µg/mL
same,MIC50,Yersinia pestis; read-out: Yersinia pestis MIC50 (μg/mL),2 µg/mL
same,MIC90,Yersinia pestis; read-out: Yersinia pestis MIC90 (μg/mL),8 µg/mL
same,MIC90,"Burkholderia mallei; Burkholderia mallei, read-out: Burkholderia mallei MIC90 (μg/mL)",> 64 µg/mL
same,Burkholderia mallei MIC50,Burkholderia mallei; n = 10,16 µg/mL
same,MIC50,[5]; read-out: Burkholderia pseudomallei MIC50 (μg/mL),32 µg/mL
same,MIC90,[5]; read-out: Burkholderia pseudomallei MIC90 (μg/mL),64 µg/mL
same,Escherichia coli 25922 MIC,Escherichia coli 25922,16 µg/mL
same,MIC,[6],8 to 16 µg/mL
same,"CYP inhibition at 10 μM (1A, 2B6, 2C8, 2C9, 2C19, 2D6, 3A)",[7],No issues
same,Papp A→B,[8],0.74 ×10⁻⁶ cm/s
same,MIC,S. aureus 29213,0.125 to 0.25 µg/mL
same,MIC,S. aureus USA300,0.125 to 0.25 µg/mL
same,Mouse Vdss (L),[9],0.53*** L
same,Mouse plasma protein binding (% unbound),,31 % unbound
same,Human plasma protein binding (% unbound),[10],10 % unbound
same,Rat plasma protein binding (% unbound),[11],4 % unbound
same,Dog plasma protein binding (% unbound),[12],20 % unbound
same,Safety44 screen at 100 μM,[13],None >50%
same,"Comprehensive in vitro proarrhythmia assay at 100 μM, inhibition",[14],All <25%
same,Vd,in vivo,0.36 L
same,half-life,in vitro [15],> 4 h
same,half-life,in vitro [16],> 4 h
same,half-life,in vitro [17],> 2 h
same,solubility kinetic,physchem,118 µM
same,"Mouse PK AUClast, unbound (μg*h/mL) after 50 mg/kg oral dose",Mouse pharmacokinetics; [18],5** μg*h/mL
same,"Mouse PK AUClast, unbound (μg*h/mL) after 50 mg/kg oral dose",Mouse pharmacokinetics; [19],12*** μg*h/mL
same,Mouse Clunbound (mL/min/kg),Mouse pharmacokinetics; [18],15*** mL/min/kg
same,Mouse Clunbound (mL/min/kg),Mouse pharmacokinetics; [19],45**** mL/min/kg

# Reference: patent US20260226077A1, “TYPE II TOPOISOMERASE INHIBITORS AND METHODS OF MAKING AND USING THEREOF” (Ohio State Innovation Foundation, priority 2023, published 2026)
